Biological target: T1, α2δ subunit derived from porcine brain tissue (Sus scrofa, UniProt A0A287BIN3)
T1 construct: the α2δ subunit derived from porcine brain tissue; from tissue; host or cells: porcine brain
Assay: radioligand binding assay using [3H]gabapentin and the α2δ subunit
Conditions: [3H]gabapentin radioligand
Excerpt: The biological activity of the compounds of the invention may be measured in a radioligand binding assay using [^3H]gabapentin and the α2δ subunit derived from porcine brain tissue (Gee N. S., Brown J. P., Dissanayake V. U. K., Offord J., Thurlow R., Woodruff G. N., […] J. Biol. Chem., 1996;271:5879-[…]). Results may be expressed in terms of μM or nM α2δ binding affinity.

T1 sequence (A0A287BIN3 entry or part of it): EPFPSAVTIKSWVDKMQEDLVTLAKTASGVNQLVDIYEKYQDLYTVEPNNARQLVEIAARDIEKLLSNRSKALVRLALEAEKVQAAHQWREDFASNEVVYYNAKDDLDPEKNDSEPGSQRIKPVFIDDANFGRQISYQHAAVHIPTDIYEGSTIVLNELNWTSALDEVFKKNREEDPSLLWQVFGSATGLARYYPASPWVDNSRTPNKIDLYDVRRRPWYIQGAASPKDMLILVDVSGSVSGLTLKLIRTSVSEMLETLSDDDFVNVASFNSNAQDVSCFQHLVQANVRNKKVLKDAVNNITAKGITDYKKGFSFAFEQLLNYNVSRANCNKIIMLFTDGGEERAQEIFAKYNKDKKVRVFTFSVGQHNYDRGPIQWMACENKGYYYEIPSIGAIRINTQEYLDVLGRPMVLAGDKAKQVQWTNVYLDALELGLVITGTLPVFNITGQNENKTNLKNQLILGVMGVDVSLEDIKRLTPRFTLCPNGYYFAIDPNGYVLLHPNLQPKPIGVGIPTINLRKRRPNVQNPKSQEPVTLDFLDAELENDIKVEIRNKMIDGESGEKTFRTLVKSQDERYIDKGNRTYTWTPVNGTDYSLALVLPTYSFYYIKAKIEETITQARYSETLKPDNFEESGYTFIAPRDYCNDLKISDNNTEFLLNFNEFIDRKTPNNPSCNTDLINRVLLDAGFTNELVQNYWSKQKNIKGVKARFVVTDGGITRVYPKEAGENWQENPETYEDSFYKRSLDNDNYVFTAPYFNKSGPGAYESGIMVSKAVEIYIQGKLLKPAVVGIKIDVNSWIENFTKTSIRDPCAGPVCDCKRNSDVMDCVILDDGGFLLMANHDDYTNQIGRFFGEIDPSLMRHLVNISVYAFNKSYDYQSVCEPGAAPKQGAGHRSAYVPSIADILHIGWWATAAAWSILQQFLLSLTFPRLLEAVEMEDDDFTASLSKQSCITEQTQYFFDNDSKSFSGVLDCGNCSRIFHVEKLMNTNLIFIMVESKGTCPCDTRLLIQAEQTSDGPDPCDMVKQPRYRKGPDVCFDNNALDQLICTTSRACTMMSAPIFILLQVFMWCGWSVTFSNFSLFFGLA

Compound	α2δ binding affinity [nM]
Cl.NC[C@]1(CC(=O)O)C[C@H]2CCCC[C@H]21 (racemic) [Example 4, [(1RS,6RS,7SR)-7-(Aminomethyl)bicyclo[4.2.]oct-7-yl]acetic acid hydrochloride]	600
Cl.NC[C@]1(CC(=O)O)C[C@H]2CCC[C@H]21 [Example 1, [(1R,5R,6S)-6-(Aminomethyl)bicycl[3.2.0]hept-6-yl]acetic acid hydrochloride]	46.8

From US20040092591A1, “Therapeutic use of fused bicyclic or tricyclic amino acids” (priority 2002, published 2004)
